{
  "source": "patent US9598407B2",
  "about": "“Antibacterial piperidinyl substituted 3,4-dihydro-1H-[1,8]naphthyridinones” (JANSSEN SCIENCES IRELAND UC, priority 2011, dated 2017)",
  "key": {"[1]": {"target": "S. aureus ATCC 29213 FabI (Staphylococcus aureus (strain MRSA252), UniProt Q6GI75)", "assay": "Staphylococcus aureus FabI enzyme inhibition assay", "format": "biochemical", "settings": "30 minutes at room temperature, pH 6.5", "experimental": "D.1 FabI Enzyme Inhibition: Staphylococcus aureus FabI Enzyme Inhibition Assay\nFabI enzyme inhibition assays were carried out in half-area, 384-well microtitre plates. Compounds were evaluated in 40-μl assay mixtures containing 100 mM NaADA, pH 6.5 (ADA=N-[2-acetamido]-2iminodiacetic acid), 250 μM crotonoyl-CoA, 625 μM NADH and 50 μg/ml S. aureus ATCC 29213 FabI Inhibitors were typically varied over the range of 50 to 0.39 μM. The reaction mixtures were incubated for 30 minutes at room temperature and the reaction was stopped by adding 200 mM Tris buffer (pH 9.0) to create a pH-shift. The consumption of NADH was monitored by measuring the change in absorbance at […]. By comparing sample readings to those of negative (absence of compound) and positive (absence of enzyme) controls, the percent inhibition of enzymatic activity of the compounds was determined A best-fit curve is fitted by a minimum of squares method. From this an IC50-value (expressed in μg/ml), resulting in 50% inhibition of enzymatic activity, was obtained."}, "[2]": {"tested_on": "Human HelaM cells", "assay": "Cytotoxicity MTT assay (TOX HELAM 222.125)", "format": "cell-based", "settings": "72 hours", "experimental": "Cytotoxicity of the compounds was evaluated using the MTT assay. Human HelaM cells grown in 96-well plates were exposed to serial dilutions of the tested compounds (final volume of 0.2 ml) and incubated for 72 hours at 37° C. and 5% CO2 Inhibitors are typically varied over the range of 25 to 0.8 μM. The final DMSO concentration in the assay is 0.5%. MTT (3-(4,5-Dimethylthiazol-2-yl)-2,5-diphenyltetrazolium bromide, a tetrazole) was added and reduced to purple formazan only in living cells. Solubilization of the formazan crystals was achieved by adding 100 μl 2-propanol. Cell viability was determined by measuring the absorbance of the reduced formazan, giving a purple color, at 540 nm and 690 nm. The absorbance measured at 690 nm was automatically subtracted from the absorbance at 540 nm, to eliminate the effects of non-specific absorption. The percent cytotoxicity achieved by the compounds was calculated according to standard methods. Cytotoxicity is reported as CC50, the concentration that causes a 50% reduction in cell viability.\nThe results are depicted in the table D2 below (TOX HELAM)."}, "[3]": {"tested_on": "S. aureus", "assay": "Antibacterial susceptibility testing, IC90 with 10% human serum (STA + 10% HS 361.169)", "format": "cell-based, Staphylococcus aureus", "settings": "S. aureus with 10% human serum", "experimental": "(§1) The following bacteria were used: Staphylococcus aureus ATCC 29213, methicillin-resistant Staphylococcus aureus (MRSA) ATCC 700788 and Escherichia coli ATCC 35218. The bacteria used in this study were grown overnight in flasks containing 100 ml Mueller-Hinton broth (Difco cat. nr. 0757-17) in sterile de-ionized water, with shaking, at 37° C. Stocks were store at −70° C. until use.\n(§2) Bacteria were incubated on a tryptic soy agar plate containing 5% sheep blood (Becton Dickinson cat. nr. 254053) for 18-24 hours at 35° C. in aerobic conditions (first passage). For the second passage, fresh Mueller-Hinton broth is inoculated with 5-10 colonies and grown overnight at 35° C. until turbidity (reaching log-phase) in aerobic conditions is reached. The bacterial suspension is then adjusted to 0.5 McFarland density and further diluted 1:100 in Mueller Hinton broth medium. This is used as inoculum.\n(§3) MIC assays were performed by the broth microdilution method in a 96-well format (flat-bottom microtitre plates) with a final volume of 0.1 ml Mueller Hinton broth containing two-fold serial dilutions of compounds and inoculated with 5×10^5 CFU/ml of bacteria (standard inoculum size according to CLSI guidelines). Inhibitors are typically varied over the range of 63 to 0.49 μM. The final DMSO concentration in the assay was 1.25% (maximum tolerable DMSO concentration=6%). In the assays where the effect of human serum on the activity of the compounds against S. aureus was tested, human serum was added at a final concentration of 10%. The plates were incubated at 35° C. for 16-20 hours. At the end of incubation the bacterial growth was quantified fluorometrically. For this, resazurin was added to all wells and the plates were re-incubated. The incubation time is dependent on the type of bacteria. A change in color from blue to pink indicated the growth of bacteria. The fluorescence was read in computer-controlled fluorometer (Fluoroskan Ascent FL, Labsystems) at an excitation wavelength 540 nm and an emission wavelength of 590 nm. The % growth inhibition achieved by the compounds was calculated according to standard methods. The IC90 (expressed in μg/ml) was defined as the 90% inhibitory concentration for bacterial growth. A panel of reference compounds were simultaneously tested for QC approval.\nThe results are depicted in the table D2 below (STA+10% HS)."}, "[4]": {"tested_on": "Staphylococcus aureus ATCC 29213", "assay": "Antibacterial susceptibility testing, IC90 determination (STA 361.159)", "format": "cell-based", "settings": "STA ATCC 29213; 90% inhibitory concentration for bacterial growth", "experimental": "D.2 In Vitro Method for Testing Compounds for Antibacterial Activity Against Various Bacterial Strains Preparation of Bacterial Suspensions for Susceptibility Testing\nas §1, §2\nAntibacterial Susceptibility Testing: IC90 Determination\nas §3"}, "[5]": {"tested_on": "M. catarrhalis ATCC 8176", "assay": "Antimicrobial spectrum, CLSI broth microdilution MIC", "format": "cell-based, Moraxella catarrhalis", "settings": "b-lactamase negative, MHB", "experimental": "(§4) Minimum Inhibitory Concentrations (MICs) were determined in accordance with the Clinical and Laboratory Standards Institute (CLSI) methodology against aerobic bacteria (CLSI M07-A8) (see Clinical and Laboratory Standards Institute. 2009. Methods for dilution antimicrobial susceptibility tests for bacteria that grow aerobically. CLSI document M07-A8, Vol. 29, No. 2.) by the broth microdilution method with cation-adjusted Mueller-Hinton broth (CA-MHB) medium for the majority of organisms, except for Haemophilus influenza, where Haemophilis test medium (HTM) broth was used. Descriptions of the individual organisms can be found in the table. Where possible, ATCC standard strains were tested.\n(§5) The inoculum density for the susceptibility testing was standardized to give a final inoculum of approximately 5×10^5 CFU/mL.\n(§6) Stock solutions of the compounds were prepared in DMSO at concentrations of 1 mg/mL. Linezolid was prepared in DMSO at a concentration of 2 mg/mL. Stock solutions of all compounds were diluted into CA-MHB to give a range of two-fold dilutions, depending upon the sensitivity of the organism being tested."}, "[6]": {"tested_on": "H. influenza ATCC 49247", "assay": "Antimicrobial spectrum, CLSI broth microdilution MIC", "format": "cell-based, Haemophilus influenzae", "settings": "HTM broth", "experimental": "as §4, §5, §6"}, "[7]": {"tested_on": "E. coli ATCC 25922", "assay": "Antimicrobial spectrum, CLSI broth microdilution MIC", "format": "cell-based, Escherichia coli", "settings": "reference strain, MHB", "experimental": "as §4, §5, §6"}, "[8]": {"tested_on": "E. coli tolC mutant", "assay": "Antimicrobial spectrum, CLSI broth microdilution MIC", "format": "cell-based, Escherichia coli", "settings": "MHB", "experimental": "as §4, §5, §6"}, "[9]": {"assay": "In vivo pharmacokinetic and oral bioavailability", "settings": "male Swiss mice", "experimental": "The in vivo pharmacokinetics and oral bioavailability of the compound of the examples was/is investigated in male Swiss mice (fed) following single intravenous (i.v.) bolus and oral (p.o.) administration. For the i.v. and p.o. solution formulations, the compound was/is dissolved in a 20% HP-β-CD solution. The pH of the formulations was/is around pH 4. All i.v. formulations were isotonic."}, "[10]": {"tested_on": "S. aureus NRS119", "assay": "Antimicrobial spectrum, CLSI broth microdilution MIC", "format": "cell-based, Staphylococcus aureus", "settings": "LZD-R, MHB", "experimental": "as §4, §5, §6"}, "[11]": {"tested_on": "S.aureus NRS121", "assay": "Antimicrobial spectrum, CLSI broth microdilution MIC", "format": "cell-based, Staphylococcus aureus", "settings": "LZD-R, MHB", "experimental": "as §4, §5, §6"}, "[12]": {"tested_on": "S. aureus ATCC 43300", "assay": "Antimicrobial spectrum, CLSI broth microdilution MIC", "format": "cell-based, Staphylococcus aureus", "settings": "reference strain MRSA, MHB", "experimental": "as §4, §5, §6"}, "[13]": {"tested_on": "S. aureus ATCC 29213", "assay": "Antimicrobial spectrum, CLSI broth microdilution MIC", "format": "cell-based, Staphylococcus aureus", "settings": "reference strain MSSA, MHB", "experimental": "as §4, §5, §6"}, "[14]": {"tested_on": "S. aureus NRS120", "assay": "Antimicrobial spectrum, CLSI broth microdilution MIC", "format": "cell-based, Staphylococcus aureus", "settings": "LZD-R, MHB", "experimental": "as §4, §5, §6"}},
  "data": [
    {"smiles": "O=C1CCc2cc(/C=C/C(=O)N3CCC(Cc4ccccn4)CC3)cnc2N1", "note": "[compound 35]", "values": [
      {"measurement": "FabI IC50", "setting": "[1]", "result": 0.48, "unit": "µg/mL"},
      {"measurement": "TOX HELAM (222.125) CC50", "setting": "[2]", "result": ">9.456", "unit": "µg/mL"},
      {"measurement": "STA + 10% HS (361.169) IC90", "setting": "[3]", "result": 3.94, "unit": "µg/mL"},
      {"measurement": "STA (361.159) IC90", "setting": "[4]", "result": 5.14, "unit": "µg/mL"}
    ]},
    {"smiles": "O=C1CCc2cc(/C=C/C(=O)N3CCC(CC4CCCS4)CC3)cnc2N1", "note": "(stereo not shown) [compound 36]", "values": [
      {"measurement": "FabI IC50", "setting": "[1]", "result": 0.61, "unit": "µg/mL"},
      {"measurement": "TOX HELAM (222.125) CC50", "setting": "[2]", "result": ">9.684", "unit": "µg/mL"},
      {"measurement": "STA + 10% HS (361.169) IC90", "setting": "[3]", "result": 11.38, "unit": "µg/mL"},
      {"measurement": "STA (361.159) IC90", "setting": "[4]", "result": 8.43, "unit": "µg/mL"}
    ]},
    {"smiles": "O=C1CCc2cc(/C=C/C(=O)N3CCC(Cc4cccs4)CC3)cnc2N1", "note": "[compound 37]", "values": [
      {"measurement": "FabI IC50", "setting": "[1]", "result": 0.50, "unit": "µg/mL"},
      {"measurement": "MIC90", "setting": "[5]", "result": 1, "unit": "µg/mL"},
      {"measurement": "MIC90", "setting": "[6]", "result": ">8", "unit": "µg/mL"},
      {"measurement": "MIC90", "setting": "[7]", "result": ">8", "unit": "µg/mL"},
      {"measurement": "MIC90", "setting": "[8]", "result": ">8", "unit": "µg/mL"},
      {"measurement": "TOX HELAM (222.125) CC50", "setting": "[2]", "result": 19.12, "unit": "µg/mL"},
      {"measurement": "STA + 10% HS (361.169) IC90", "setting": "[3]", "result": 0.36, "unit": "µg/mL"},
      {"measurement": "AUC0-inf", "setting": "[9]; i.v., 2.5 mg/kg", "result": 7464, "unit": "ng·h/mL"},
      {"measurement": "Half life (t1/2)", "setting": "[9]; i.v., 2.5 mg/kg", "result": 2.7, "unit": "h"},
      {"measurement": "Plasma clearance Cl", "setting": "[9]; i.v., 2.5 mg/kg", "result": 0.33, "unit": "L/h/kg"},
      {"measurement": "Vdz", "setting": "[9]; i.v., 2.5 mg/kg", "result": 1.3, "unit": "L/kg"},
      {"measurement": "C0", "setting": "[9]; i.v., 2.5 mg/kg, 20% HP-β-CD solution", "result": 2929, "unit": "ng/mL"},
      {"measurement": "Oral bioavailability", "setting": "[9]; p.o. 10 mg/kg vs i.v. 2.5 mg/kg", "result": 72, "unit": "%"},
      {"measurement": "AUC0-inf", "setting": "[9]; p.o., 10 mg/kg", "result": 21394, "unit": "ng·h/mL"},
      {"measurement": "Half life (t1/2)", "setting": "[9]; p.o., 10 mg/kg", "result": 3.2, "unit": "h"},
      {"measurement": "Tmax", "setting": "[9]; p.o., 10 mg/kg", "result": 2.0, "unit": "h"},
      {"measurement": "Cmax", "setting": "[9]; p.o., 10 mg/kg, 20% HP-β-CD solution", "result": 2950, "unit": "ng/mL"},
      {"measurement": "STA (361.159) IC90", "setting": "[4]", "result": 0.30, "unit": "µg/mL"},
      {"measurement": "MIC90", "setting": "[10]", "result": 0.125, "unit": "µg/mL"},
      {"measurement": "MIC90", "setting": "[11]", "result": 0.125, "unit": "µg/mL"},
      {"measurement": "MIC90", "setting": "[12]", "result": 0.125, "unit": "µg/mL"},
      {"measurement": "MIC90", "setting": "[13]", "result": 0.125, "unit": "µg/mL"},
      {"measurement": "MIC90", "setting": "[14]", "result": 0.125, "unit": "µg/mL"}
    ]}
  ]
}
